{"source": "patent US12187742B2", "about": "(XRAD Therapeutics, Inc., priority 2018, dated 2025)", "note": "pIC50: −log10 of the molar value. Counter-ions that a name gives are not always drawn.", "data": [{"molecular_target": "ATM (Homo sapiens (Human), UniProt Q13315)", "sequence (Q13315 whole entry)": "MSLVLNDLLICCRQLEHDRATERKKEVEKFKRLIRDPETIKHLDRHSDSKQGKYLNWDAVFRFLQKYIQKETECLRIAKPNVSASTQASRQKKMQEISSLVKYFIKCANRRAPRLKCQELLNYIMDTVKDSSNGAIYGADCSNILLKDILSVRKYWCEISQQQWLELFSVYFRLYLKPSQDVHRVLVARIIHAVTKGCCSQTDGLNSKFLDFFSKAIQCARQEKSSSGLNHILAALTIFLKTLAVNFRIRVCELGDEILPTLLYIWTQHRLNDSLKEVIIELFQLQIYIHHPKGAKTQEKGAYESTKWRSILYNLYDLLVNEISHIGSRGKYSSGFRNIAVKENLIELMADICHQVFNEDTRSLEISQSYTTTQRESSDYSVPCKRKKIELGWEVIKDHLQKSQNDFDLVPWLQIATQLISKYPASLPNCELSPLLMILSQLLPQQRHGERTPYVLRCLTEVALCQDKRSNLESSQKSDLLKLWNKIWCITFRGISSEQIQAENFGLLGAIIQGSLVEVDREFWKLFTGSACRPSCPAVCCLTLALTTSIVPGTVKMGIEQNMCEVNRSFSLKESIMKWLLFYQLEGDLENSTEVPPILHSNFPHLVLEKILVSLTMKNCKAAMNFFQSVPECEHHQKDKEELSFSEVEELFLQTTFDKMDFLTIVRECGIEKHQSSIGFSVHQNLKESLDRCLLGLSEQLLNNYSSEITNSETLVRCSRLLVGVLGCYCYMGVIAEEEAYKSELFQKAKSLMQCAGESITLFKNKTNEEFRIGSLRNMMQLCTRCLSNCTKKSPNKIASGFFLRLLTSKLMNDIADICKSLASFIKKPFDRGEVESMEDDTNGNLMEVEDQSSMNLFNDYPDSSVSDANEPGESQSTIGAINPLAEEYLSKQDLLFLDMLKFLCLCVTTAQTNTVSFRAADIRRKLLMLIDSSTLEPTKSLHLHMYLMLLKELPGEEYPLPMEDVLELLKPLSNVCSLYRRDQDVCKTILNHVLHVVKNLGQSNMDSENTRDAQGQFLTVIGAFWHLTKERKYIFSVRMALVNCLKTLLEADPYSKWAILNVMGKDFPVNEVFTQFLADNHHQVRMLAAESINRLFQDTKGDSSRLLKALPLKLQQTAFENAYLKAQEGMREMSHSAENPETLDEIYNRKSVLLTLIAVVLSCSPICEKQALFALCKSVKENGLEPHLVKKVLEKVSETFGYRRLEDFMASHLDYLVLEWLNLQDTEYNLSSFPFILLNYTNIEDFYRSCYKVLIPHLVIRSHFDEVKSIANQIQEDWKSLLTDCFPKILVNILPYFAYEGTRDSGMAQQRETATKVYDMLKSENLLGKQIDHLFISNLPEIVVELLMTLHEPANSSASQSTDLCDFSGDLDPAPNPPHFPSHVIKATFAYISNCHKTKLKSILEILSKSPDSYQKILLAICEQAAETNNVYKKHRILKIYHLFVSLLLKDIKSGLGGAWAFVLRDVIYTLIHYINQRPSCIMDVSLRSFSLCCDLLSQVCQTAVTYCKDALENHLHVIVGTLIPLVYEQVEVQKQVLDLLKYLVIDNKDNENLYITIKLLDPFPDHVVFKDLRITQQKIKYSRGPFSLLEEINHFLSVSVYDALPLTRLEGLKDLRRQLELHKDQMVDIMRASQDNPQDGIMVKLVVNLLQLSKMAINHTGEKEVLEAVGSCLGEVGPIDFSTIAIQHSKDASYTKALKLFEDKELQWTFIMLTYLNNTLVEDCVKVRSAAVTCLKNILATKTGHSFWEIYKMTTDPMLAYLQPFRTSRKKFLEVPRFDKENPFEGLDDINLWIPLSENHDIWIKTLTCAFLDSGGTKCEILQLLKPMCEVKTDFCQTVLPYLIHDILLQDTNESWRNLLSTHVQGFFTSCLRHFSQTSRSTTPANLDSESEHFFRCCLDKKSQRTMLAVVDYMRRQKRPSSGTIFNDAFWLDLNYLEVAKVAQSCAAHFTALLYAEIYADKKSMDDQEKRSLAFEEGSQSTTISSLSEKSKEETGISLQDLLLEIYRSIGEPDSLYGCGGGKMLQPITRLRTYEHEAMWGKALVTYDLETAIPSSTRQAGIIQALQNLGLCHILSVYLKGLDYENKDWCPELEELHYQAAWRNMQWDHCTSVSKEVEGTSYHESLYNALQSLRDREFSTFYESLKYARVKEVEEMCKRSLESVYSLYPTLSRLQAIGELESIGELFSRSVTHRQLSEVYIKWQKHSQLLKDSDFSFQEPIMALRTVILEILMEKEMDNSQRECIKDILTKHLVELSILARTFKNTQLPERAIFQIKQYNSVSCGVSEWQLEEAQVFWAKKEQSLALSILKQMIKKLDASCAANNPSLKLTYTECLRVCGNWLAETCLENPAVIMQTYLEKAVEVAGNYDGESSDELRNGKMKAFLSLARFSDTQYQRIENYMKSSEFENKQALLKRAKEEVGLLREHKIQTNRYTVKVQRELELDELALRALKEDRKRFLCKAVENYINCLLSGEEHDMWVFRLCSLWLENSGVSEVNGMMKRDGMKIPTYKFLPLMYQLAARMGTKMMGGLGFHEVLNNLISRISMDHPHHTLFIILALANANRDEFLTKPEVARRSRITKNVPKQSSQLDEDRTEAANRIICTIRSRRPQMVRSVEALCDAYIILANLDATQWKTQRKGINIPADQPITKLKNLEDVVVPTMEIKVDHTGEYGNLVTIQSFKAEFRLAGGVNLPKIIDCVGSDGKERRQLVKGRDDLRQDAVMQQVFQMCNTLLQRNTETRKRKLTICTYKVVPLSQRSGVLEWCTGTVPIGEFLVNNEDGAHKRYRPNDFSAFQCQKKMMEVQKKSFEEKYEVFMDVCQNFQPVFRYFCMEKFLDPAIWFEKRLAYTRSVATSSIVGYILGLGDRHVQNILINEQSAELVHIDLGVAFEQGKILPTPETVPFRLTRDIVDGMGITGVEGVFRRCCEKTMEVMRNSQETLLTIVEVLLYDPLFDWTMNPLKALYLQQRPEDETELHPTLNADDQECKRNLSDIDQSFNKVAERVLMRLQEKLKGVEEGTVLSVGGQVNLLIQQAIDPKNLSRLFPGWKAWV", "test": "ATM in Cell Western Assay (pKAP1 in etoposide-treated MCF-7 cells)", "type": "cell-based", "details": "pKAP1 in etoposide-treated MCF-7 cells", "outline": "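After paraformaldehyde fixation and Triton X-100 permeabilization, immunostained plates were read by infrared scanning (ODYSSEY CLx). Compound was given as 10 doses, 3-fold dilutions from a 1 μM final top concentration.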", "values": [{"compound": "CN1C(=O)C2(CCC2)c2c1cnc1cc(F)c(-c3cnc(OCCNCCF)c(NS(C)(=O)=O)c3)cc21", "note": "[Example 380, N-(5-(7′-Fluoro-3′-methyl-2′-oxo-2′,3′-dihydrospiro [cyclobutane-1,1′-pyrrolo[2.3-c]quinolin]-8′-yl)-2-(2-((2-fluoroethyl)amino)ethoxy)pyridin-3-yl) methanesulfonamide hydrochloride]", "pIC50": "7.00 to 9.00"}, {"compound": "CC(C)NCCOc1ncc(-c2cc3c(cc2F)ncc2c3[C@]3(C[C@H](O)C3)C(=O)N2C)cc1NS(C)(=O)=O", "note": "[Example 381, cis-N-(5-(7′-Fluoro-3-hydroxy-3′-methyl-2′-oxo-2′,3′-dihydrospiro[cyclobutane-1,1′-pyrrolo[2,3-c]quinolin]-8′-yl)-2-(2-(isopropylamino)ethoxy)pyridin-3-yl)methanesulfonamide hydrochloride]", "pIC50": "7.00 to 9.00"}, {"compound": "CC(C)NCCOc1ncc(-c2cc3c(cc2F)ncc2c3[C@]3(C[C@@H](O)C3)C(=O)N2C)cc1NS(C)(=O)=O", "note": "[Example 382, trans-N-(5-(7′-Fluoro-3-hydroxy-3′-methyl-2′-oxo-2′,3′-dihydrospiro[cyclobutane-1,1′-pyrrolo[2,3-c]quinolin]-8′-yl)-2-(2-(isopropylamino)ethoxy)pyridin-3-yl)methanesulfonamide]", "pIC50": "7.00 to 9.00"}, {"compound": "CO[C@H]1C[C@@]2(C1)C(=O)N(C)c1cnc3cc(F)c(-c4cnc(OCCNC(C)C)c(NS(C)(=O)=O)c4)cc3c12", "note": "[Example 386]", "pIC50": "7.00 to 9.00"}, {"compound": "CCO[C@H]1C[C@@]2(C1)C(=O)N(C)c1cnc3cc(F)c(-c4cnc(OCCNC(C)C)c(NS(C)(=O)=O)c4)cc3c12", "note": "[Example 394, trans-N-(5-(3-Ethoxy-7′-fluoro-3′-methyl-2′-oxo-2′,3′-dihydrospiro[cyclobutane-1,1′-pyrrolo[2,3-c]quinolin]-8′-yl)-2-(2-(isopropylamino)ethoxy)pyridin-3-yl)methanesulfonamide]", "pIC50": "7.00 to 9.00"}, {"compound": "CC(C)NCCOc1ncc(-c2cc3c(cc2F)ncc2c3[C@]3(C[C@@H](OC(C)C)C3)C(=O)N2C)cc1NS(C)(=O)=O", "note": "[Example 396, trans-N-(5-(7′-Fluoro-3-isopropoxy-3′-methyl-2′-oxo-2′,3′-dihydrospiro[cyclobutane-1,1′-pyrrolo[2,3-c]quinolin]-8′-yl)-2-(2-(isopropylamino)ethoxy)pyridin-3-yl)methanesulfonamide]", "pIC50": "7.00 to 9.00"}, {"compound": "CC(C)NCCOc1ncc(-c2cc3c(cc2F)ncc2c3[C@]3(C[C@@H](OC(C)c4ccccc4)C3)C(=O)N2C)cc1NS(C)(=O)=O", "note": "(stereo partly drawn) [Example 398, trans-N-(5-(7′-Fluoro-3′-methyl-2′-oxo-3-(1-phenylethoxy)-2′,3′-dihydrospiro[cyclobutane-1,1′-pyrrolo[2,3-c]quinolin]-8′-yl)-2-(2-(isopropylamino)ethoxy)pyridin-3-yl)methanesulfonamide]", "pIC50": "< 7.00"}, {"compound": "CN(C)CCCOc1c(NS(C)(=O)=O)cc(-c2ccc3ncc4c(c3c2)C2(CCC2)C(=O)N4C)cc1C(=O)O", "note": "[Example 399, 2-(3-(Dimethylamino)propoxy)-5-(3′-methyl-2′-oxo-2′,3′-dihydrospiro[cyclobutane-1,1′-pyrrolo[2,3-c]quinolin]-8′-yl)-3-(methylsulfonamido)benzoic acid]", "pIC50": "< 7.00"}, {"compound": "CC(C)NCCOc1ncc(-c2cc3c(cc2F)ncc2c3[C@]3(C[C@@H](Oc4ccccc4)C3)C(=O)N2C)cc1NS(C)(=O)=O", "note": "[Example 401, trans-N-(5-(7′-Fluoro-3′-methyl-2′-oxo-3-phenoxy-2′,3′-dihydrospiro[cyclobutane-1,1′-pyrrolo[2,3-c]quinolin]-8′-yl)-2-(2-(isopropylamino)ethoxy)pyridin-3-yl)methanesulfonamide]", "pIC50": "7.00 to 9.00"}, {"compound": "CC(C)NCCOc1ncc(-c2cc3c(cc2F)ncc2c3[C@]3(C[C@@H](Oc4ccccc4)C3)C(=O)N2C)cc1NS(=O)(=O)N(C)C", "note": "[Example 403, trans-S′-{5-[(Dimethylsulfamoyl)amino]-6-{2-[(propan-2-ylamino]ethoxy}pyridine-3-yl}-7′-fluoro-3′-methyl-3-phenoxy-2′,3′-dihydrospiro[cyclobutane-1,1′-pyrrolo[2,3-c]quinoline]-2′-one hydrochloride]", "pIC50": "< 7.00"}]}]}
